How the values were obtained:
MIF = biological target: T1, MIF (Homo sapiens, UniProt P14174); experiment: Inhibition of MIF tautomerase activity (L-dopachrome methyl ester, absorbance at 475 nm); format: biochemical; details: 30 μmol/L test substance, 10 to 50 nmol/L MIF, pH 6.2, control = 100%; read-out: Inhibition Rate of Tautomerase Reaction
T1 construct: (catalogue number not given); host or cells: E. coli BL21 Star (DE3)
T1 sequence (P14174 2-115 limits assumed): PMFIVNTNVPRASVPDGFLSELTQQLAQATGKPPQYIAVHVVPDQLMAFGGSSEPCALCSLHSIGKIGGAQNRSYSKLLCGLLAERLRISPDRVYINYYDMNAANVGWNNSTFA
Method: The inhibitory effect of test substances against tautomerase activity of MIF was evaluated by referring to a method of Healy et al. (Cancer Epidemiology Biomarkers and Prevention, 2011, vol. 20, pp. 1516-1523).
In this method, tautomeric reaction from L-3,4-dihydroxyphenylalanine methyl ester (L-dopachrome methyl ester, colored) to 5,6-hydroxyindole-2-carboxylic acid methyl ester (no color) is measured as a change in absorbance at 475 nm.
As an enzyme source, recombinant MIF manufactured by Abcam Plc. or MIF produced and purified by referring to a method of Lubetsky et al. (The Journal of Biological Chemistry, 2002, vol. 277, pp. 24976-24982) was used. A purification method for MIF is described below.
The pET15b vector (Merck) into which the full length gene sequence of MIF had been inserted was transfected E. coli BL21 Star (DE3) strain (Life Technologies Corporation). […] The E. coli were resuspended in buffer (pH 7.5) containing 20 mmol/L Tris (Wako Pure Chemical Industries, Ltd.), 20 mmol/L sodium chloride (Wako Pure Chemical Industries, Ltd.) and 1 mmol/L dithiothreitol (Wako Pure Chemical Industries, Ltd.), and the resultant was subjected to ultrasonic lysis and centrifugation at 15000 rpm for 10 minutes. The thus obtained supernatant was filtered using a 0.20 μm filter, and was allowed to pass through HiTrap Q HP and HiTrap SP HP columns (GE Healthcare Japan Corporation), so as to separate flow-through fractions each of 5 mL. Each of 10 μL of the separated fractions was subjected to the electrophoresis using 5 to 20% polyacrylamide gel (Wako Pure Chemical Industries, Ltd.), and all proteins were stained with Coomassie brilliant blue reagent (Bio-Rad Laboratories, Inc.). On the basis of results thus obtained, a fraction containing a large amount of MIF and containing least amount of other proteins was selected as purified MIF. The concentration of MIF protein was measured by using BCA protein assay reagent (Thermo Fisher Scientific K. K.).
Inhibitory effect of each test substance against MIF tautomerase activity was measured as follows.
A final concentration of 10 to 50 nmol/L of MIF and a final concentration of 30 μmol/L of each test substance or 0.5% dimethyl sulfoxide (Wako Pure Chemical Industries, Ltd.) as a control were added to buffer (pH 6.2) containing 50 mmol/L Bis-Tris (Dojindo Laboratories) and 1 mmol/L EDTA (Dojindo Laboratories), and reaction was performed at room temperature for 15 minutes to give a reaction solution 1.
On the other hand, 1/20 volume of 12 mmol/L L-3,4-dihydroxyphenylalanine methyl ester (Sigma Aldrich) and 1/20 volume of 24 mmol/L sodium periodate (Wako Pure Chemical Industries, Ltd.) were added to buffer having the same composition as that used for obtaining the reaction solution 1, to give a reaction solution 2.
Next, the reaction solution 1 and the reaction solution 2 were mixed, and the temporal change of absorbance at 475 nm of the obtained mixture was immediately measured.
The difference of the absorbencies between the at about 1 minute after the measurement start and at about 5 minutes after was obtained. Assuming that the absorbance change of the control is 100%, an inhibiting rate of the tautomerase reaction in presence of=each test substance was calculated.

[1] = tested on: chronic constriction nerve injury model rat; experiment: Chronic constriction nerve injury model rat, mechanical allodynia by von Frey test; format: in vivo
Method: This test was performed by referring to a method of Bennett et al. (Pain, 1988, vol. 33, pp. 87-107). Compound A was used as a test substance, and celecoxib, one of NSAIDs, was used as a reference substance. The compound A was administered at a dose of 30 mg/kg (Compound A group). The celecoxib was administered at a dose of 30 mg/kg (celecoxib group). To a control group, a 0.5% methyl cellulose aqueous solution used as a vehicle was administered. Under anesthetic with Somnopentyl (manufactured by Kyoritsu Seiyaku Corporation, about 52 mg/kg, intraperitoneal administration), nerve constriction operation was performed on the left sciatic nerves of Sprague-Dawley male rats (7 weeks old). Briefly, a left femoral region of each rat was dissected, the sciatic nerve was detached from tissues around, and the nerve was loosely constricted with a 4-0 silk suture (manufactured by Eticon Inc., surgical silk) for having narrow parts in four positions at intervals of about 1 mm. The muscular layer and the skin were respectively sutured, and the operation region was disinfected. The vehicle, the test substance or the reference substance was orally administered once a day continuously for 14 days from the 16th day after the operation. From the start of the administration, pain sense (mechanical allodynia) of the footpad of left hind paw was evaluated by von Frey test. […] The evaluation of the pain sense was expressed as an average of pain threshold values.

## CS(=O)(=O)Nc1cc2occ(NC=O)c(=O)c2cc1Oc1ccccc1 [Compound A, N-[7-[(methylsulfonyl)amino]-4-oxo-6-phenoxy-4H-1-benzopyran-3-yl]formamide]
MIF
  inhibition at 30 µM: 50 to 75%
[1]; 30 mg/kg orally once a day for 14 days, compared with control group
  Effect on the symptom of mechanical allodynia: inhibited the symptom of the mechanical allodynia
[1]; von Frey test, left hind paw, 30 mg/kg orally once a day for 14 days from the 16th day after operation
  Average of pain thresholds, 30th day after operation: 13.5 g
[1]; von Frey test, left hind paw, day before start of administration, 30 mg/kg groups
  Average of pain thresholds, 15th day after operation: 2.4 g

Source: patent US9918963B2, “Therapeutic agent for disease based on inhibitory effect of macrophage migration inhibitory factor” (TOYAMA CHEMICAL CO., LTD., priority 2013, dated 2018)
